One assay has as its system STAT3/DNMT1 interaction. The assay can be described thus: IP assay: ectopic STAT3/DNMT1 interaction in 293T cells. The assay is classed as cell-based, human. To be noted: 293T cells expressing ectopic STAT3 and DNMT1, C16 for 2 h. As to the method:
Figure 7 Peptide derived from the STAT3‐binding sites of SHF is an effective GBM suppressive strategy. A) Binding model between SHF and STAT3 using ZDOCK server. […] B) IF staining determined the cell penetrability and nuclear‐localization of C16. U251 cells were incubated with C16 or SC for 2 h and performed IF staining using the indicated antibodies. Bars, 10 µm. C) The statical analysis of adsorption equilibrium assay detecting the binding of C16 and SC with recombinant STAT3. D) Pull‐down assay indicating C16 binds STAT3. GST‐STAT3 was incubated with C16 or SC for 2 h, and the pull‐down assay was performed using Anti‐His magnetic beads. E) IP assay showing the effect of C16 on STAT3 dimerization. 293T cells transfected with indicated vectors were incubated with C16 for 2 h. The relative quantification of STAT3 dimerization was listed. F) IP assay detecting the effect of C16 on the interaction of STAT3 and DNMT1. […] The relative quantification of STAT3/DNMT1 interaction was listed. […] The relative quantification of STAT3/DNMT1 interaction was listed. […] Positive cells were quantified 20 randomly selected fields per mouse (n = 6, Student's t‐test, **p < 0.01). […]
Immunoprecipitation (IP) experiments were performed to analyze the protein interactions. […] Precipitated products were analyzed by Western blot using the specified antibodies. […]

Assay [1] deals with intracranial U87 xenograft in nude mice. The assay can be described thus: Intracranial U87 xenograft tumor growth, bioluminescence. The note with it: female nude mice, 10 µg i.p. once every 2 days from third day after implantation; vs SC; n = 6, p < 0.01. The assay is classed as in vivo, mouse. The text has this:
(§1) Considering that the SH2 domain predominantly represents the inhibition of SHF on STAT3 dimerization and activity, we speculated that this domain may be an optional target for GBM suppression. To this end, we analyzed the mechanical interaction of SHF and STAT3. The structures of human SHF (aa265‐421) and STAT3 (aa130‐715). both of which spanned their respective SH2 domain. were simulated by Swiss‐Model server (https://swissmodel.expasy.org/). To simulate the interaction of SHF and STAT3, Discovery studio 2018 was employed to complete protein‐protein docking using ZDOCK as an initial stage. A rigid body molecular docking algorithm utilizing a fast Fourier transform (FFT) algorithm was used to further improve performance for searching in translational space. […] Next, we determined the implication of C16 in tumor inhibition. […] A concentration of 25 uM was determined to be adequate for use in the subsequent experiments. […]
(§2) Figure 7 Peptide derived from the STAT3‐binding sites of SHF is an effective GBM suppressive strategy. […] B) IF staining determined the cell penetrability and nuclear‐localization of C16. […] The relative quantification of STAT3 dimerization was listed. […] The relative quantification of STAT3/DNMT1 interaction was listed. […] The relative quantification of STAT3/DNMT1 interaction was listed. […]

Assay [2] deals with U87 xenograft tumor cell proliferation. The assay can be described thus: EdU incorporation in intracranial U87 xenografts. It counts as in vivo, mouse. To be noted: 10 µg i.p. once every 2 days; EdU 24 h prior to sacrifice; vs SC; n = 6, p < 0.01.
Description: as §1, §2

Turning to “C16: peptide spanning SHF amino acids 388–421, palmitic acid at the N-terminus, amidated C-terminus, 3× His tags added to the C-terminal (PFSSVPEIVHHYASRKLPIKGAEHMSLLYPVAIR; palmitic acid at the N-terminus; amidated C-terminus; left off: 3× His tags, C-terminal, kept)”, in the assay with STAT3/DNMT1 interaction, the “ectopic STAT3/DNMT1 interaction” value is reported as “decrease”. The “growth of intracranial tumors” value in assay [1] was “potently inhibited the growth of intracranial tumors”. The “EdU positive cells in xenografts” value in assay [2] is on record as “significantly decreased”.

These data come from publication PMC9475553, “SHF Acts as a Novel Tumor Suppressor in Glioblastoma Multiforme by Disrupting STAT3 Dimerization” (Advanced Science, 2022).
